Experimental findings from PMC12655579, “Cocrystallization of Ezetimibe with Organic Acids: Stoichiometric Optimization for Improved Solubility and Bioavailability” (Pharmaceutics, 2025) are described below.

Data set [1] is described as follows: In vitro dissolution (USP apparatus II, paddle). It is filed as physicochemical. The note with it: 0.45% w/v SLS in 0.05 M acetate buffer pH 4.5, 37 °C. On the procedure: The samples were mixed in a 5 mL tube with 2 mL of the solvent at a concentration of 1 mg/mL using a multi-mixer (SLRM-3, Seoulin Biosciences, Pangyo, Republic of Korea) for 48 h at 25 °C. The mixtures were then centrifuged at 13,000 rpm for 10 min (Eppendorf 5425R, Hamburg, Germany) and manually filtered using a 0.45 μm polytetrafluoroethylene (PTFE-H) syringe filter. The absorbance of the filtered samples at 233 nm was measured using a UV-VIS spectrophotometer. Similarly, dissolution was assessed using the USP dissolution apparatus II (paddle) (Varian 705 DS, Cary, NC, USA) at 50 rpm in 500 mL of 0.45% w/v SLS in 0.05 M acetate buffer (pH 4.5) at 37 ± 0.5 °C. The cocrystal samples (equivalent to 10 mg ezetimibe) were weighed and added into the dissolution vessel (n = 3). Aliquots were collected at predetermined time points: 5 min, 10 min, 15 min, 30 min, 45 min, 60 min, 90 min, and 120 min. The displaced volume was replenished with fresh buffer after each sampling. The collected samples were filtered through a 0.45 µm RC syringe filter and subjected to UV-VIS spectrophotometer.

A short description of data set [2]: In vivo pharmacokinetics after single oral gavage. The note with it: rat, male Sprague Dawley rats, fasted, plasma, table prints dose 10 mg/kg for all groups (methods: CRYS101 10 mg/kg, CRYS102-104 30 mg/kg). On the procedure:
The stock standard solution was prepared by dissolving ezetimibe at 0.5 mg/mL in 40% MeOH. The absorbance of the standards was measured at 233 nm using UV-VIS spectrophotometer (Optizen pop, Mecasys®, Seoul, Republic of Korea). The bioanalysis was performed using validated LC-MS/MS methods with MRM detection (details in Supplementary Materials). The method was developed using an Agilent 1290 Infinity II BioLC system coupled with an Agilent 6495D Triple-Quadrupole mass spectrometer, employing electrospray ionization (ESI). Chromatographic separation was achieved on a Kintex C18 column (2.6 μm, 100 × 3 mm) maintained at 30 °C, using an isocratic mobile phase of water-acetonitrile (20:80 v/v) at 0.25 mL/min flow rate. The run time was optimized to 5 min with a 2 μL injection volume. Mass spectrometric detection utilized multiple reaction monitoring (MRM) in negative polarity mode for ezetimibe ([M − H]^− m/z 408.1 → 271.1) and positive mode for the internal standard itraconazole ([M + H]^+ m/z 705.2 → 391.6). Detailed description is included in the Supplementary Materials.
In vivo pharmacokinetic profile of ezetimibe cocrystal formulations was assessed in male Sprague Dawley rats (n = 4 per group, 7–8-week-old, mean weight 271.1 g). The SD rats were obtained from G-Bio (Gwangju, Republic of Korea). They were maintained under a 12 h light/dark cycle and provided with free access to food and water. The animal experimental protocol was approved by the Institutional Animal Care and Use Committee (IACUC) of Mokpo National University (Mokpo, Republic of Korea; approval no. MNU-IACUC-2025-015).
The rats were fasted overnight before oral administration, and four formulation groups received single oral doses through gavage: Group 1 (CRYS101) at 10 mg/kg and Groups 2–4 (CRYS102-104) at 30 mg/kg. Blood samples (200 μL) were collected from the femoral artery at predetermined time points after the administration. The collected samples were centrifuged at 16,000× g for 5 min at 4 °C, and the plasma was stored at −70 °C until analysis. The plasma samples analyzed using a validated UPLC-MS/MS method with 1 ng/mL lower quantification limit.

In general, AUC(0-inf) refers to the area under the concentration-time curve extrapolated to infinity. Broadly, the AUC(0-t) is the area under the concentration-time curve up to a stated or last time point. Higher therefore signals high exposure. Usually Cmax stands for the peak of the concentration-time curve. Usually Tmax stands for the time from dosing to the highest level. Turning to `O=C1[C@H](CC[C@H](O)c2ccc(F)cc2)[C@@H](c2ccc(O)cc2)N1c1ccc(F)cc1` [Ezetimibe], the “In vitro release at 120 min” value in data set [1] is 45%. The same compound registered an AUC(0-inf) in data set [2] (SD not determined) of 41.8 ng·h/mL. Besides, in data set [2] (n = 4/group, mean ± SD), the exposure AUC(0-t) was found to be 11 ± 8.63 ng·h/mL, the Cmax worked out at 6.73 ± 4.29 ng/mL and the Tmax came out at 1.33 ± 0.76 h.
